In article PMC6979384, “Characterization of the plant homeodomain (PHD) reader family for their histone tail interactions” (Epigenetics & Chromatin, 2020):
Where no end group is shown, it is not given here.

Legend:
[1] = system: 123 annotated human PHD-containing domains; assay: PHD finger domain microarray probed with biotinylated peptides (all domains); type: binding; conditions: GST-PHD readers in duplicate on nitrocellulose slides, biotinylated peptide pre-labeled with streptavidin-Cy3
Text: To define the histone binding preferences of the PHD finger proteome, we expressed and purified 123 annotated human PHD-containing domains as GST-tagged recombinant fusions from E. coli. The recombinant proteins consisted of either PHD fingers in isolation, or as tandem domains if a given PHD finger was located adjacent to another reader domain (e.g., one or more PHD fingers, Tudor, chromo and/or bromodomains) (Additional file 1: Table S1). These GST fusions were printed in duplicate on nitrocellulose-coated microarray slides and probed with biotinylated peptides that represented the N-termini of H3, H4, H2A or H2B (Fig. 1a and Additional file 2: Figure S1). As the majority of PHD readers thus far characterized are H3K4me0/3 readers, we included additional peptides (H3K4 as either mono-, di-, or trimethylated) to further determine any H3K4 methyl preference (Additional file 2: Figure S2 and Fig. 1b). As a control, we also probed these microarrays with an α-Tubulin peptide (a.a. 30–50) that would not be predicted to interact with PHD fingers (Additional file 2: Figure S1). […] We also cannot exclude the possibility that some PHD fingers might not be functionally active on the microarrays (perhaps due to misfolding or the lack of an important adjacent region).
The protein domain microarray was designed to include 123 GST-tagged PHD-domain containing recombinant proteins. Protein domain microarray development and probing was as previously. Briefly, recombinant proteins were synthesized and cloned into pGEX-4T-1 vector by Biomatik Corporation. These GST-PHD readers were subsequently expressed, purified, and spotted in duplicate onto nitrocellulose-coated glass slides (Oncyte Avid slides, Grace Bio-Labs) using a pin arrayer (Aushon 2470, Aushon). For probing, microarray slides were blocked with 3% milk, 3% bovine serum albumin, 0.1% Tween 20 in PBS. Biotinylated peptides were pre-labeled with streptavidin-Cy3 fluorophore (GE Healthcare) and incubated with the blocked array slides. Slides were then washed with PBST and allowed to air dry. Fluorescent interactions were visualized using a GenePix 4200A Microarray Scanner (Molecular Devices).

ING4 = assay: Histone peptide microarray; type: binding, human; conditions: ING4, GST-tagged; arrays performed twice, n of 4
Outline: (§1)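 GST-tagged PHD finger readers were expressed, purified and applied at 0.5 μM to a microarray of 293 synthetic histone peptides carrying single or combinatorial PTMs, using an optimized protocol. Binding signals are averages with standard deviation from 4 replicates.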

ING1 = assay: Histone peptide microarray; type: binding, human; conditions: ING1, GST-tagged; arrays performed twice, n of 4
Outline: as §1

PHF21A = assay: Histone peptide microarray; type: binding, human; conditions: PHF21A, GST-tagged; arrays performed twice, n of 4
Outline: as §1

CHD5 (PPCC) = assay: Histone peptide microarray; type: binding, human; conditions: CHD5 (PPCC), GST-tagged; arrays performed twice, n of 4
Outline: as §1

TAF3 = assay: Histone peptide microarray; type: binding, human; conditions: TAF3, GST-tagged; arrays performed twice, n of 4
Outline: as §1

DIDO1 = assay: Histone peptide microarray; type: binding, human; conditions: DIDO1, GST-tagged; arrays performed twice, n of 4
Outline: as §1

ING3 = assay: Histone peptide microarray; type: binding, human; conditions: ING3, GST-tagged; arrays performed twice, n of 4
Outline: as §1

MORC3 (CW) = assay: Histone peptide microarray; type: binding, human; conditions: MORC3 (CW), GST-tagged; arrays performed twice, n of 4
Outline: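 Readout is array binding signal, reported as the mean and standard deviation over four replicates. Each purified GST-fused PHD domain was incubated at 0.5 μM with a library of 293 modified histone peptides.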

CHD5 (PCC) = assay: Histone peptide microarray; type: binding, human; conditions: CHD5 (PCC), GST-tagged; arrays performed twice, n of 4
Outline: as §1

BAZ2B = assay: Histone peptide microarray; type: binding, human; conditions: BAZ2B, GST-tagged; arrays performed twice, n of 4
Outline: as §1

PHF13 = assay: Histone peptide microarray; type: binding, human; conditions: PHF13, GST-tagged; arrays performed twice, n of 4
Outline: as §1

RAG2 = assay: Histone peptide microarray; type: binding, human; conditions: RAG2, GST-tagged; arrays performed twice, n of 4
Outline: as §1

KDM4C (TTP) = assay: Histone peptide microarray; type: binding, human; conditions: KDM4C (TTP), GST-tagged; arrays performed twice, n of 4
Outline: as §1

TRIM66 (PB) = assay: Histone peptide microarray; type: binding, human; conditions: TRIM66 (PB), GST-tagged; arrays performed twice, n of 4
Outline: as §1

PHRF1 (RP) = assay: Histone peptide microarray; type: binding, human; conditions: PHRF1 (RP), GST-tagged; arrays performed twice, n of 4
Outline: as §1

PHF8 = assay: Histone peptide microarray; type: binding, human; conditions: PHF8, GST-tagged; arrays performed twice, n of 4
Outline: as §1

BPTF (PB) = assay: Histone peptide microarray; type: binding, human; conditions: BPTF (PB), GST-tagged; arrays performed twice, n of 4
Outline: as §1

KDM7A = assay: Histone peptide microarray; type: binding, human; conditions: KDM7A, GST-tagged; arrays performed twice, n of 4
Outline: as §1

KDM5B (1) = assay: Histone peptide microarray; type: binding, human; conditions: KDM5B (1), GST-tagged; arrays performed twice, n of 4
Outline: as §1

KDM5B (3) = assay: Histone peptide microarray; type: binding, human; conditions: KDM5B (3), GST-tagged; arrays performed twice, n of 4
Outline: as §1

CHD4 (PPCC) = assay: Histone peptide microarray; type: binding, human; conditions: CHD4 (PPCC), GST-tagged; arrays performed twice, n of 4
Outline: as §1

KDM5A (3) = assay: Histone peptide microarray; type: binding, human; conditions: KDM5A (3), GST-tagged; arrays performed twice, n of 4
Outline: as §1

PHF2 = assay: Histone peptide microarray; type: binding, human; conditions: PHF2, GST-tagged; arrays performed twice, n of 4
Outline: as §1

SP140L = assay: Histone peptide microarray; type: binding, human; conditions: SP140L, GST-tagged; arrays performed twice, n of 4
Outline: as §1

AIRE (PP) = assay: Histone peptide microarray; type: binding, human; conditions: AIRE (PP), GST-tagged; arrays performed twice, n of 4
Outline: as §1

DPF2 (PPC2W2) = assay: Histone peptide microarray; type: binding, human; conditions: DPF2 (PPC2W2), GST-tagged; arrays performed twice, n of 4
Outline: as §1

MLL5 = assay: Histone peptide microarray; type: binding, human; conditions: MLL5, GST-tagged; arrays performed twice, n of 4
Outline: as §1

ING2 = assay: Histone peptide microarray; type: binding, human; conditions: ING2, GST-tagged; arrays performed twice, n of 4
Outline: as §1

PHF23 = assay: Histone peptide microarray; type: binding, human; conditions: PHF23, GST-tagged; arrays performed twice, n of 4
Outline: as §1

KDM5A (1) = assay: Histone peptide microarray; type: binding, human; conditions: KDM5A (1), GST-tagged; arrays performed twice, n of 4
Outline: as §1

ING5 = assay: Histone peptide microarray; type: binding, human; conditions: ING5, GST-tagged; arrays performed twice, n of 4
Outline: as §1

Substance: Ac-H2A (1-17): histone peptide (Ac-SGRGKQGGKARAKAKTR; UniProt P0C0S8 2-18, looked up, fragment)
- binding on domain microarray [1]: No detectable binding observed

Substance: Ac-H4 (1-16): histone peptide (SGRGKGGKGLGKGGAK; N-terminal acetylation; UniProt P62805 2-17, looked up, fragment)
- binding on domain microarray [1]: No detectable binding observed

Substance: H2B: biotinylated N-terminal H2B peptide (Figure S1: H2B (1-24)) [Peptide H2B]
- binding on domain microarray [1]: little to no positive interactions

Substance: H4: biotinylated N-terminal H4 peptide (Figure S1: Ac-H4 (1-16)) (SGRGKGGKGLGKGGAK; biotin, N-terminal acetyl; UniProt P62805 2-17, looked up, fragment) [Peptide H4]
- binding on domain microarray [1]: little to no positive interactions

Substance: Myc-Tag: 1-10 (ILKKATAYIL; Myc epitope tag; UniProt P01106 410-419, looked up, fragment)
- Array Heatmap value (peptide array binding signal) (ING4): 0.4476
- Array Heatmap value (peptide array binding signal) (ING1): 0.569
- Array Heatmap value (peptide array binding signal) (PHF21A): 0.4264
- Array Heatmap value (peptide array binding signal) (CHD5 (PPCC)): 0.538
- Array Heatmap value (peptide array binding signal) (TAF3): 0.2522
- Array Heatmap value (peptide array binding signal) (DIDO1): 0.7478
- Array Heatmap value (peptide array binding signal) (ING3): 0.5082
- Array Heatmap value (peptide array binding signal) (MORC3 (CW)): 0.3567
- Array Heatmap value (peptide array binding signal) (CHD5 (PCC)): 0.7878
- Array Heatmap value (peptide array binding signal) (BAZ2B): 0.4426
- Array Heatmap value (peptide array binding signal) (PHF13): 0.6119
- Array Heatmap value (peptide array binding signal) (RAG2): 0.2496
- Array Heatmap value (peptide array binding signal) (KDM4C (TTP)): 0.4677
- Array Heatmap value (peptide array binding signal) (TRIM66 (PB)): 0.6061
- Array Heatmap value (peptide array binding signal) (PHRF1 (RP)): 0.4883
- Array Heatmap value (peptide array binding signal) (PHF8): 0.3567
- Array Heatmap value (peptide array binding signal) (BPTF (PB)): 0.3544
- Array Heatmap value (peptide array binding signal) (KDM7A): 0.3296
- Array Heatmap value (peptide array binding signal) (KDM5B (1)): 0.6488
- Array Heatmap value (peptide array binding signal) (KDM5B (3)): 0.4322
- Array Heatmap value (peptide array binding signal) (CHD4 (PPCC)): 0.5842
- Array Heatmap value (peptide array binding signal) (KDM5A (3)): 0.493
- Array Heatmap value (peptide array binding signal) (PHF2): 0.5897
- Array Heatmap value (peptide array binding signal) (SP140L): 0.3664
- Array Heatmap value (peptide array binding signal) (AIRE (PP)): 0.3997
- Array Heatmap value (peptide array binding signal) (DPF2 (PPC2W2)): 0.6957
- Array Heatmap value (peptide array binding signal) (MLL5): 0.5446
- Array Heatmap value (peptide array binding signal) (ING2): 0.5931
- Array Heatmap value (peptide array binding signal) (PHF23): 0.5279
- Array Heatmap value (peptide array binding signal) (KDM5A (1)): 0.4279
- Array Heatmap value (peptide array binding signal) (ING5): 0.3459

Substance: α-Tubulin (30-50): α-Tubulin peptide (a.a. 30–50), control (IQPDGQMPSDKTIGGGDDSFN; also: biotin (end not given here))
- binding on domain microarray [1]: No detectable binding observed
- binding on domain microarray ([1]; listed as tubulin): little to no positive interactions
